Values quoted from earlier work as cited in patent EP0306335A1, “Analysis of ions present at low concentrations in solutions containing other ions” (Bradshaw, Jerald S., priority 1987, dated 1989).

Settings: ligand as solute in solution

With O=C(O)CN(CCN(CC(=O)O)CC(=O)O)CC(=O)O [EDTA, ethylenediaminetetraacetic acid] as the compound, how does the “log of the equilibrium constant (log K) for interaction with Sr²⁺” value read?
The value was 8.73.
